Assay results as given in US6451802B1, “S-oxide lipid lowering compounds” (Janssen Pharmaceutica N.V., priority 1998, dated 2002).

How the values were obtained:
Dog MTP = target: T1, Dog MTP (Canis lupus familiaris, UniProt A0A8I3S8Z7); test: MTP assay (triglyceride transfer from donor to acceptor vesicles); type: biochemical; conditions: drug concentration that corresponds with 50% of control values
T1 sequence (A0A8I3S8Z7 18-893): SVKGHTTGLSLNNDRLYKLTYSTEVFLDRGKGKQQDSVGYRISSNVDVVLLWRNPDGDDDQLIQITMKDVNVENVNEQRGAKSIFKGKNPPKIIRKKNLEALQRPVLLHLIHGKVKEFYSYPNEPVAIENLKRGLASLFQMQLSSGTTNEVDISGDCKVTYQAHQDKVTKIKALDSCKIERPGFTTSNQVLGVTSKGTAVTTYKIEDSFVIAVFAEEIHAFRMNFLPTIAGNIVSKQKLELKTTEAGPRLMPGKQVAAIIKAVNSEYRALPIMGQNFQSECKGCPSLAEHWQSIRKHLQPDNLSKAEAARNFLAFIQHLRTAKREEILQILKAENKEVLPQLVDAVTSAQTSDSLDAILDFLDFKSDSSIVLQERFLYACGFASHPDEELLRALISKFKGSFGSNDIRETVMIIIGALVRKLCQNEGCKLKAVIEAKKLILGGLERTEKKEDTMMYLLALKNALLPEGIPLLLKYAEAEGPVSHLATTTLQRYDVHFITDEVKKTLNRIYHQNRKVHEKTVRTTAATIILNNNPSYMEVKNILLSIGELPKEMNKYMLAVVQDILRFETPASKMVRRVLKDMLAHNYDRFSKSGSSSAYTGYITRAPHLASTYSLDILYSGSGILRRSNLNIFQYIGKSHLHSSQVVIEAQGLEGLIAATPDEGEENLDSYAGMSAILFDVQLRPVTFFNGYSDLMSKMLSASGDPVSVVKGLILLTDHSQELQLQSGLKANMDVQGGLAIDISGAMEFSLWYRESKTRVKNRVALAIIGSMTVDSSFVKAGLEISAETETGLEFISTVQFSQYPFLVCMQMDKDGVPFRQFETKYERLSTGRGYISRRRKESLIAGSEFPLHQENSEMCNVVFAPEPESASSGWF
Description: MTP activity was measured using an assay similar to one described by J. R. Wetterau and D. B. Zilversmit in Chemistry and Physics of Lipids, 38, 205-222 (1985). To prepare the donor and acceptor vesicles, the appropriate lipids in chloroform were put into a glass test tube and dried under a stream of N2. A buffer containing 15 mM Tris-HCl pH 7.5, 1 mM EDTA, 40 mM NaCl, 0.02% NaN3 (assay buffer) was added to the dried lipid. The mixture was vortexed briefly and the lipids were then allowed to hydrate for 20 min on ice. Vesicles were then prepared by bath sonication (Branson 2200) at room temperature for maximum 15 min. Butylated hydroxytoluene was included in all vesicle preparations at a concentration of 0.1%. The lipid transfer assay mixture contained donor vesicles (40 nmol phosphatidylcholine, 7.5 mol % of cardiolipin and 0.25 mol % glycerol tri [1-^14C]-oleate), acceptor vesicles (240 nmol phosphatidylcholine) and 5 mg BSA in a total volume of 675 μl in a 1.5 ml microcentrifuge tube. Test compounds were added dissolved in DMSO (0.13% final concentration). After 5 minutes of pre-incubation at 37° C., the reaction was started by the addition of MTP in 100 μl dialysis buffer. The reaction was stopped by the addition of 400 μl DEAE-52 cellulose pre-equilibrated in 15 mM Tris-HCI pH 7.5, 1 mM EDTA, 0.02% NaN3 (1:1, vol/vol). The mixture was agitated for 4 min and centrifuged for 2 min at maximum speed in an Eppendorf centrifuge (4° C.) to pellet the DEAE-52-bound donor vesicles. An aliquot of the supernatant containing the acceptor liposomes was counted and the [^14C]-counts were used to calculate the percent triglyceride transfer from donor to acceptor vesicles. Resulting IC50 values are enumerated in Table C.1.

[1] = Plasma levels in a clinical trial on human volunteers; type: in vivo; conditions: for share of the total AUC, compounds 1, 2 and 3 together: one value for the three compounds combined
Text: Plasma levels of compounds 1, 2 and 3 and of compound A have been measured in a clinical trial on human volunteers.

HepG2 cells = test: Quantification of the secretion of ApoB in HepG2 cells; type: cell-based; conditions: 24 hours of incubation, calculated by non-linear regression analysis
Description: HepG2 cells were cultured in 24-well plates in MEM Rega 3 containing 10% fetal calf serum. At 70% confluency, the medium was changed and the test compound or carrier (DMSO, 0.4% final concentration) was added. After 24 hours of incubation, the medium was transferred to Eppendorf tubes and cleared by centrifugation. A sheep antibody directed against either apoB was added to the supernatant and the mixture was kept at 8° C. for 24 hours. Then, rabbit anti-sheep antibody was added and the immune complex was allowed to precipitate for 24 hours at 8° C. The immunoprecipitate was pelleted by centrifugation for 25 min at 1320 g and washed twice with a buffer containing 40 mM Mops, 40 mM NaH2PO4, 100 mM NaF, 0.2 mM DTT, 5 mM EDTA, 5 mM EGTA, 1% Triton-X-100, 0.5% sodium deoxycholate (DOC), 0.1% SDS, 0.2 μM leupeptin and 0.2 μM PMSF. Radioactivity in the pellet was quantified by liquid scintillation counting. Resulting IC50 values are enumerated in Table C. 1.

[2] = human volunteers, single 200 mg dose administration of compound A

| IC50 (Dog MTP) | clearance compared with compound A ([1]; human volunteers) | share of the total AUC, compounds 1, 2 and 3 together [1, 2] | IC50 (HepG2 cells; Homo sapiens, HepG2, 24 h) | IC50 (HepG2 cells) | share of the total AUC (Area Under the Curve) [1, 2] | metabolisation on passing the liver (first-pass) ([1]; human, in vivo) | Structure (SMILES) |
| --- | --- | --- | --- | --- | --- | --- | --- |
| 6.2 nM | slower than clearance of compound A | 92% | 61 nM |  |  |  | CCC(C)n1ncn(-c2ccc(N3CCN(c4ccc(OC[C@@H]5CO[C@@](CS(=O)(=O)c6nncn6C)(c6ccc(Cl)cc6)O5)cc4)CC3)cc2)c1=O (relative stereo) [Compound 1, [2S-[2α,4α(S*)]]-4-[4-[4-[4-[[2-(4-chloropheny)-2-[[(4-methyl-4H-1,2,4-triazol-3-yl)sulfonyl]methyl]-1,3-dioxlan-4-yl]methoxy]phenyl]-1-piperazinyl]phenyl]-2,4-dihydro-2-(1-methylpropyl)-3H-1,2,4-triazol-3-one] |
| 118 nM | slower than clearance of compound A | 92% |  | 930 nM |  |  | CCC(C)n1ncn(-c2ccc(N3CCN(c4ccc(OCC5COC(C[S+]([O-])c6nncn6C)(c6ccc(Cl)cc6)O5)cc4)CC3)cc2)c1=O (single isomer, unassigned) [Compound 2] |
| 11 nM | slower than clearance of compound A | 92% |  | 94 nM |  |  | CCC(C)n1ncn(-c2ccc(N3CCN(c4ccc(OCC5COC(C[S+]([O-])c6nncn6C)(c6ccc(Cl)cc6)O5)cc4)CC3)cc2)c1=O (single isomer, unassigned) [Compound 3, [2S-[2α(B),4α(S*)]]-4-[4-[4-[4-[[2-(4-chlorophenyl)-2-[[(4-methyl-4H-1,2,4-traizol-3yl]sulfinyl]methyl]-1,3-dioxolan-4-yl]methoxy]phenyl]-1-piperazinyl]Phenyl-2,4-dihydro-2-(1-methylpropyl)-3H-1,2,4-traizol-3-one] |
| 7.6 nM |  |  | 25 nM |  | 8% | extensive metabolisation | CC[C@@H](C)n1ncn(-c2ccc(N3CCN(c4ccc(OC[C@@H]5CO[C@@](CSc6nncn6C)(c6ccc(Cl)cc6)O5)cc4)CC3)cc2)c1=O [compound A, (−)-[2S-[2α,4α(S*)]]-4-[4-[4-[4-[[-2-(4-chlorophenyl)-2-[[(4-methyl-4H-1,2,4-triazol-3-yl)thio]methyl]-1,3-dioxolan-4-yl]methoxy]phenyl]-1-piperazinyl]phenyl]-2,4-dihydro-2-(1-methylpropyl)-3H-1,2,4-triazol-3-one, reference compound] |
